This passage reports T/C results from PubChem BioAssay AID330 (DTP/NCI, 2004).

This test concerns P388 leukemia ip, CD2F1 mice, survival T/C. Kind of test: NCI In Vivo Anticancer Drug Screen. Data for tumor model P388 Leukemia (intraperitoneal) in CD2F1 (CDF1) mice. The settings on record: endpoint: median survival time, higher = longer survival. The method in brief: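 Mice carrying the transplanted tumor received test compound or vehicle. Survival was recorded in each group, and the value is the treated-group measurement divided by that of the vehicle-treated control group.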

The mark [1] stands for this setting: dose: 60.0 mg/kg/injection, schedule: Q01DX005 (ip), vehicle: saline.
Where [2] appears, read: dose: 50.0 mg/kg/injection, schedule: Q01DX005 (ip), vehicle: saline with Tween-80.
The mark [3] stands for this setting: dose: 50.0 mg/kg/injection, schedule: Q01DX005 (ip), vehicle: Klucel (hydroxypropylcellulose) (HPC).
Setting [4] is: dose: 100.0 mg/kg/injection, schedule: Q01DX005 (ip), vehicle: Klucel (hydroxypropylcellulose) (HPC).
Where [5] appears, read: dose: 200.0 mg/kg/injection, schedule: Q01DX005 (ip), vehicle: Klucel (hydroxypropylcellulose) (HPC).
The mark [6] stands for this setting: dose: 50.0 mg/kg/injection, schedule: Q01DX009 (ip), vehicle: saline with Tween-80.
Setting [7] is: dose: 100.0 mg/kg/injection, schedule: Q01DX009 (ip), vehicle: saline with Tween-80.
Setting [8] is: dose: 200.0 mg/kg/injection, schedule: Q01DX009 (ip), vehicle: saline with Tween-80.

Where “and” joins values, the source holds several entries; their conditions need not be identical. Equal values may be shown once. Toxic doses and inconclusive results are not listed. Peptide text beside a SMILES is read from it.

In the case of `COc1cccc2c1NC(O)c1cccn1C2=O` (stereo not given), the T/C (dose: 0.1 mg/kg/injection, schedule: Q01DX005 (ip), vehicle: water) is 93 % of control; the T/C (dose: 0.2 mg/kg/injection, schedule: Q01DX005 (ip), vehicle: water) is 93 % of control; the T/C (dose: 0.4 mg/kg/injection, schedule: Q01DX005 (ip), vehicle: water) is 96 % of control; the T/C (dose: 0.8 mg/kg/injection, schedule: Q01DX005 (ip), vehicle: water) is 93 % of control; the T/C (dose: 1.6 mg/kg/injection, schedule: Q01DX005 (ip), vehicle: water) is 98 % of control; the T/C (dose: 5.0 mg/kg/injection, schedule: Q01DX005 (ip), vehicle: distilled water + Tween-80) is 90 % of control. Besides, the T/C by setting is: (dose: 10.0 mg/kg/injection, schedule: Q01DX005 (ip), vehicle: distilled water + Tween-80) 98 % of control; (dose: 20.0 mg/kg/injection, schedule: Q01DX005 (ip), vehicle: distilled water + Tween-80) 100 % of control; (dose: 40.0 mg/kg/injection, schedule: Q01DX005 (ip), vehicle: distilled water + Tween-80) 100 % of control; (dose: 80.0 mg/kg/injection, schedule: Q01DX005 (ip), vehicle: distilled water + Tween-80) 93 % of control.

For `OC(Cc1nc2ccccc2s1)(C(F)(F)F)C(F)(F)F`, the T/C is, setting by setting: (dose: 100.0 mg/kg/injection, schedule: Q04DX003 (ip), vehicle: saline with Tween-80) 100 % of control; (dose: 200.0 mg/kg/injection, schedule: Q04DX003 (ip), vehicle: saline with Tween-80) 95 % of control; (dose: 400.0 mg/kg/injection, schedule: Q04DX003 (ip), vehicle: saline with Tween-80) 95 % of control.

Consider `COC(=O)C(CCCN=C(N)N)NC(=O)C(N)CCCCN` (stereo not drawn) (H-Lys-Arg-OMe; configuration not given here), for which the T/C runs as follows: (dose: 60.0 mg/kg/injection, schedule: Q01DX005 (ip), vehicle: saline with Tween-80) 100 % of control; (dose: 120.0 mg/kg/injection, schedule: Q01DX005 (ip), vehicle: saline with Tween-80) 100 % of control; (dose: 240.0 mg/kg/injection, schedule: Q01DX005 (ip), vehicle: saline with Tween-80) 100 % of control.

Regarding `CC(=O)[OH+]c1c(I)cc(I)cc1C(=O)[O-].CC(=O)[OH+]c1c(I)cc(I)cc1C(=O)[O-].[Cu+2]`, the T/C was 106 % of control (dose: 15.0 mg/kg/injection, schedule: Q01DX005 (ip), vehicle: saline); 92 % of control (dose: 30.0 mg/kg/injection, schedule: Q01DX005 (ip), vehicle: saline); 106 % of control and 109 % of control under setting [1].

As to `O=C1c2ccc3ccccc3c2CCC1C1([n+]2ccccc2)CCc2c(ccc3ccccc23)C1=O` (stereo not given), the T/C reads like this: (dose: 6.25 mg/kg/injection, schedule: Q01DX005 (ip), vehicle: Klucel (hydroxypropylcellulose) (HPC)) 99 % of control and 109 % of control; (dose: 12.5 mg/kg/injection, schedule: Q01DX005 (ip), vehicle: Klucel (hydroxypropylcellulose) (HPC)) 100 % of control and 103 % of control and 98 % of control; (dose: 25.0 mg/kg/injection, schedule: Q01DX005 (ip), vehicle: Klucel (hydroxypropylcellulose) (HPC)) 99 % of control and 100 % of control and 112 % of control.

Take `COc1ccc(Cl)c2c(=O)c3ccc4c(c3[nH]c12)C(=O)c1ccccc1C4=O`: the T/C is, setting by setting: (dose: 60.0 mg/kg/injection, schedule: Q01DX005 (ip), vehicle: Klucel (hydroxypropylcellulose) (HPC)) 96 % of control; (dose: 120.0 mg/kg/injection, schedule: Q01DX005 (ip), vehicle: Klucel (hydroxypropylcellulose) (HPC)) 91 % of control; (dose: 240.0 mg/kg/injection, schedule: Q01DX005 (ip), vehicle: Klucel (hydroxypropylcellulose) (HPC)) 86 % of control.

In the case of `N#C/C(=N\NC(=O)c1ccccc1)c1ccccc1`, the T/C runs as follows: (dose: 12.5 mg/kg/injection, schedule: Q01DX005 (ip), vehicle: saline with Tween-80) 100 % of control; (dose: 25.0 mg/kg/injection, schedule: Q01DX005 (ip), vehicle: saline with Tween-80) 95 % of control; under setting [2], 103 % of control and 95 % of control.

Take `NC(N)=NS(=O)(=O)c1ccc(NCc2c3ccccc3nc3ccccc23)cc1`: the T/C was 114 % of control (dose: 3.12 mg/kg/injection, schedule: Q04DX002 (ip), vehicle: Klucel (hydroxypropylcellulose) (HPC)); 165 % of control (dose: 12.5 mg/kg/injection, schedule: Q04DX002 (ip), vehicle: Klucel (hydroxypropylcellulose) (HPC)); 172 % of control (dose: 25.0 mg/kg/injection, schedule: Q04DX002 (ip), vehicle: Klucel (hydroxypropylcellulose) (HPC)); 166 % of control (dose: 50.0 mg/kg/injection, schedule: Q04DX002 (ip), vehicle: Klucel (hydroxypropylcellulose) (HPC)); 151 % of control and 156 % of control (dose: 50.0 mg/kg/injection, schedule: Q04DX003 (ip), vehicle: Klucel (hydroxypropylcellulose) (HPC)); 174 % of control (dose: 100.0 mg/kg/injection, schedule: Q04DX002 (ip), vehicle: Klucel (hydroxypropylcellulose) (HPC)). In addition, the T/C is 168 % of control and 169 % of control (dose: 100.0 mg/kg/injection, schedule: Q04DX003 (ip), vehicle: Klucel (hydroxypropylcellulose) (HPC)); 151 % of control (dose: 200.0 mg/kg/injection, schedule: Q04DX002 (ip), vehicle: Klucel (hydroxypropylcellulose) (HPC)); 174 % of control and 180 % of control (dose: 200.0 mg/kg/injection, schedule: Q04DX003 (ip), vehicle: Klucel (hydroxypropylcellulose) (HPC)); 169 % of control (dose: 400.0 mg/kg/injection, schedule: Q04DX002 (ip), vehicle: Klucel (hydroxypropylcellulose) (HPC)); 155 % of control and 202 % of control and 207 % of control (dose: 400.0 mg/kg/injection, schedule: Q04DX003 (ip), vehicle: Klucel (hydroxypropylcellulose) (HPC)); 161 % of control (dose: 800.0 mg/kg/injection, schedule: Q04DX002 (ip), vehicle: Klucel (hydroxypropylcellulose) (HPC)). Further, the T/C (dose: 800.0 mg/kg/injection, schedule: Q04DX003 (ip), vehicle: Klucel (hydroxypropylcellulose) (HPC)) was 162 % of control and 210 % of control and 250 % of control.

Consider `COc1ccccc1C1(O)c2ccccc2C(=O)c2ccccc21`, for which the T/C was 101 % of control under setting [3], 99 % of control under setting [4] and 103 % of control under setting [5].

As for `C/C=C(\C)C(=O)O[C@@H]1[C@H]2C(C)=CC(=O)[C@@H](O)[C@]2(C)[C@H]2[C@@]3(O)OC[C@@]24[C@@H]1OC(=O)C[C@H]4[C@@H](C)[C@H]3O`, the T/C (dose: 0.25 mg/kg/injection, schedule: Q01DX009 (ip), vehicle: other) was 111 % of control and the T/C (dose: 0.6 mg/kg/injection, schedule: Q01DX009 (ip), vehicle: other) is 163 % of control.

With `NC(=O)Nc1nc(C(F)(F)F)cc(=O)[nH]1`, the T/C under setting [6] was 103 % of control, the T/C under setting [7] is 106 % of control and the T/C under setting [8] was 99 % of control.

For the molecule `Cc1c2c(cn1C)NC(=O)CN=C2c1ccccc1`, the T/C reads like this: under setting [6], 105 % of control; under setting [7], 116 % of control; under setting [8], 99 % of control.

Consider `CCC(=O)NC1c2ccccc2Oc2ccccc21`, for which the T/C under setting [2] was 100 % of control; the T/C (dose: 100.0 mg/kg/injection, schedule: Q01DX005 (ip), vehicle: saline with Tween-80) is 100 % of control; the T/C (dose: 200.0 mg/kg/injection, schedule: Q01DX005 (ip), vehicle: saline with Tween-80) is 98 % of control.

With `CN(C)C1c2cc(Br)ccc2-c2ccc(Br)cc21`, the T/C was 95 % of control under setting [3], 105 % of control under setting [4] and 110 % of control under setting [5].

In the case of `COc1ccc(/C=N/N2CN(C(C)C(=O)O)C(C)(O)N=C2N)cc1OC` (stereo not given), the T/C was 102 % of control under setting [1]; 104 % of control (dose: 120.0 mg/kg/injection, schedule: Q01DX005 (ip), vehicle: saline); 103 % of control (dose: 240.0 mg/kg/injection, schedule: Q01DX005 (ip), vehicle: saline).

In the case of `O=C(Nc1cccc2c1C(=O)c1cccc(NC(=O)c3ccc(C(=O)Nc4cccc5c4C(=O)c4cccc(NC(=O)c6ccccc6)c4C5=O)cc3)c1C2=O)c1ccccc1`, the T/C was 100 % of control under setting [6], 94 % of control under setting [7] and 93 % of control under setting [8].

`Cc1ccc2c(Nc3ccc(NS(C)(=O)=O)cc3C)c3ccccc3nc2c1`: the T/C reads like this: (dose: 12.5 mg/kg/injection, schedule: Q01DX009 (ip), vehicle: saline) 150 % of control and 161 % of control; (dose: 12.5 mg/kg/injection, schedule: Q04DX003 (ip), vehicle: saline) 98 % of control; (dose: 25.0 mg/kg/injection, schedule: Q01DX009 (ip), vehicle: saline) 156 % of control and 157 % of control; (dose: 25.0 mg/kg/injection, schedule: Q04DX003 (ip), vehicle: saline) 96 % of control; (dose: 50.0 mg/kg/injection, schedule: Q04DX003 (ip), vehicle: saline) 97 % of control; (dose: 100.0 mg/kg/injection, schedule: Q04DX003 (ip), vehicle: saline) 95 % of control.
